ChEMBL document CHEMBL4011581, “Interference with bile salt export pump function is a susceptibility factor for human liver injury in drug development” (Toxicol Sci, 2010)
pIC50: −log10 of the molar value.

Legend:
[1] = target: T1, Bile salt export pump (Homo sapiens, UniProt O95342); test: Inhibition of human BSEP expressed in fall armyworm sf9 cell membrane vesicles assessed as reduction in ATP-dependent [3H]-taurocholic acid uptake preincubated for 30 mins prior to [3H]-taurocholic acid addition by liquid scintillation counting; type: ADME
[2] = target: T1, Bile salt export pump; test: Inhibition of human BSEP expressed in fall armyworm sf9 cell membrane vesicles assessed as reduction in ATP-dependent [3H]-taurocholic acid uptake at 100 uM preincubated for 30 mins prior to [3H]-taurocholic acid addition by liquid scintillation counting relative to control; type: ADME
[3] = target: T1, Bile salt export pump; test: Inhibition of BSEP in human hepatocytes assessed as reduction in biliary excretion of [3H]-taurocholate in cell lysates at 10 to 100 uM after 15 mins by liquid scintillation counting relative to control; type: ADME, cell-based, Lysate
[4] = target: T1, Bile salt export pump; test: (§1) Inhibition of human BSEP expressed in fall armyworm sf9 cell plasma membrane vesicles assessed as reduction in vesicle-associated [3H]-taurocholate transport preincubated for 10 mins prior to ATP addition measured after 15 mins in presence of [3H]-taurocholate by topcount based membrane vesicle transport assay; type: ADME
[5] = target: T1, Bile salt export pump; test: Inhibition of BSEP in human hepatocytes assessed as reduction in biliary excretion of [3H]-taurocholate in cell lysates after 15 mins by liquid scintillation counting; type: ADME, cell-based, Lysate
[6] = target: T1, Bile salt export pump; test: as §1, with “cell” for “cell plasma”, “[3H]-taurocholate at 133 uM” for “[3H]-taurocholate transport”, “assay relative to control” for “assay”; type: ADME

| Structure (SMILES) | pIC50 [4] | further results |
| --- | --- | --- |
| CC(C)C(=O)Nc1ccc([N+](=O)[O-])c(C(F)(F)F)c1 [FLUTAMIDE] | < 3.87 | pIC50 [1]: 4.30; Imax [2]: 40 to 50%; Imax [3]: 20%; pIC50 [5]: 4.12; Imax [6]: 50% |
| CC(C)(C)NC[C@H](O)COc1nsnc1N1CCOCC1 [TIMOLOL] | < 3.87 |  |
| Clc1ccc2nsnc2c1NC1=NCCN1 [TIZANIDINE] | < 3.87 |  |
| CCCCNC(=O)NS(=O)(=O)c1ccc(C)cc1 [TOLBUTAMIDE] | < 3.87 |  |
| Cc1ccc(C(=O)c2cc(O)c(O)c([N+](=O)[O-])c2)cc1 [TOLCAPONE] | 4.46 |  |
| O=c1n(CCCN2CCN(c3cccc(Cl)c3)CC2)nc2ccccn12 [TRAZODONE] | < 3.87 |  |
| COc1cc(Cc2cnc(N)nc2N)cc(OC)c1OC [TRIMETHOPRIM] | < 3.87 |  |
| Cc1c(C)c2c(c(C)c1O)CCC(C)(COc1ccc(CC3SC(=O)NC3=O)cc1)O2 (stereo not given) [TROGLITAZONE] | 5.23 |  |
| COc1cc2c3cc1Oc1cc(ccc1O)C[C@@H]1c4c(cc(OC)c(O)c4Oc4ccc(cc4)C[C@@H]3N(C)CC2)CC[N+]1(C)C [TUBOCURARINE] | < 3.87 |  |
| CC(C)[C@@H]1NC(=O)[C@H](C)OC(=O)[C@@H](C(C)C)NC(=O)[C@@H](C(C)C)OC(=O)[C@H](C(C)C)NC(=O)[C@H](C)OC(=O)[C@@H](C(C)C)NC(=O)[C@@H](C(C)C)OC(=O)[C@H](C(C)C)NC(=O)[C@H](C)OC(=O)[C@@H](C(C)C)NC(=O)[C@@H](C(C)C)OC1=O [VALINOMYCIN] | 5.80 |  |
| COc1ccc(C(CN(C)C)C2(O)CCCCC2)cc1 (stereo not given) [VENLAFAXINE] | < 3.87 |  |
| CC[C@]1(O)C[C@@H]2CN(CCc3c([nH]c4ccccc34)[C@@](C(=O)OC)(c3cc4c(cc3OC)N(C)[C@H]3[C@@](O)(C(=O)OC)[C@H](OC(C)=O)[C@]5(CC)C=CCN6CC[C@]43[C@@H]65)C2)C1 [VINBLASTINE] | < 3.87 |  |
| COC[C@H]1OC(=O)c2coc3c2[C@@]1(C)C1=C(C3=O)[C@@H]2CCC(=O)[C@@]2(C)C[C@H]1OC(C)=O [WORTMANNIN] | 4.87 |  |
| O=P(O)(O)C(O)(Cn1ccnc1)P(=O)(O)O [ZOLEDRONIC ACID] | < 3.87 |  |
| NS(=O)(=O)Cc1noc2ccccc12 [ZONISAMIDE] | < 3.87 |  |
